Results published in ChEMBL document CHEMBL1201862, “PubChem BioAssay data set” (2004).
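Interpolation was linear, between the two tested concentrations surrounding the appropriate level; five concentrations were tested over 48 hours in 96-well plates. The concentration for 50% growth inhibition is given as GI50.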 Activity calls are given as the source filed them. No stated cut-off is given here; in the data, active = GI50 up to about 1.1 µM and inactive = higher.

What was measured:
Assay in all cases: NCI tumour cell line growth inhibition, 48 h
[1] = tested on: SF-268
[2] = tested on: NCI-H226
[3] = tested on: Malme-3M
[4] = tested on: OVCAR-8
[5] = tested on: SK-OV-3
[6] = tested on: EKVX
[7] = tested on: K562
[8] = tested on: IGROV-1
[9] = tested on: A498
[10] = tested on: SNB-19
[11] = tested on: DMS-114
[12] = tested on: HL-60
[13] = tested on: OVCAR-3
[14] = tested on: M14
[15] = tested on: A549
[16] = tested on: HCC 2998
[17] = tested on: KM-20L2
[18] = tested on: T47D
[19] = tested on: Hs-578T
[20] = tested on: MDA-N

Row | Structure (SMILES) | GI50 [1] | GI50 [2] | GI50 [3] | GI50 [4] | GI50 [5] | GI50 [6] | GI50 [7] | GI50 [8] | GI50 [9] | GI50 [10] | GI50 [11] | GI50 [12] | GI50 [13] | GI50 [14] | GI50 [15] | GI50 [16] | GI50 [17] | GI50 [18] | GI50 [19] | GI50 [20]
1 | CCCCCCCCCCCCC(=O)CCCCC(=O)O | 31.6 µM (inactive) | 22.9 µM (inactive) | 21.6 µM (inactive) | 17.5 µM (inactive) | 68.2 µM (inactive) | 33.3 µM (inactive) | 16.2 µM (inactive) | 17.3 µM (inactive) | 16.8 µM (inactive) | 54.7 µM (inactive) | 18.8 µM (inactive) | 13.5 µM (inactive) | 31.8 µM (inactive) | 17.5 µM (inactive) | 18.3 µM (inactive) | – | – | – | – | –
2 | O=C1CCC2(c3ccc(Cl)cc3)Nc3ccccc3N12 (stereo unspecified) | 83.9 µM (inactive) | 67.9 µM (inactive) | > 100 µM (inactive) | > 100 µM (inactive) | – | > 100 µM (inactive) | 54.5 µM (inactive) | > 100 µM (inactive) | > 100 µM (inactive) | > 100 µM (inactive) | 45.2 µM (inactive) | 35.5 µM (inactive) | – | – | 52.6 µM (inactive) | > 100 µM (inactive) | > 100 µM (inactive) | – | – | –
3 | Cc1coc2c1C(=O)C(=O)c1ccccc1-2 | – | 1.21 µM (inactive) | 1.58 µM (inactive) | 0.322 µM (active) | 1.76 µM (inactive) | – | 0.335 µM (active) | 1.83 µM (inactive) | 1.83 µM (inactive) | – | 0.161 µM (active) | – | 1.06 µM (active) | 1.35 µM (inactive) | 2.04 µM (inactive) | 1.9 µM (inactive) | 3.36 µM (inactive) | – | – | –
4 | O=C(NC(Cc1ccccc1)C(=O)CCl)OCc1ccccc1 (stereo unspecified) | 5.05 µM (inactive) | – | 11.4 µM (inactive) | 4.38 µM (inactive) | 14.4 µM (inactive) | – | 3.2 µM (inactive) | 13.2 µM (inactive) | 14.1 µM (inactive) | 12.3 µM (inactive) | 1.22 µM (inactive) | 3.07 µM (inactive) | 5.24 µM (inactive) | 10.6 µM (inactive) | 18.2 µM (inactive) | 18.1 µM (inactive) | 7.69 µM (inactive) | – | – | –
5 | OC(Cn1cncn1)(Cn1cncn1)c1ccc(Cl)cc1Cl | > 100 µM (inactive) | > 100 µM (inactive) | > 100 µM (inactive) | > 100 µM (inactive) | > 100 µM (inactive) | – | > 100 µM (inactive) | > 100 µM (inactive) | > 100 µM (inactive) | – | > 100 µM (inactive) | > 100 µM (inactive) | > 100 µM (inactive) | > 100 µM (inactive) | > 100 µM (inactive) | – | > 100 µM (inactive) | – | – | –
6 | COc1cccc(C2SCc3nc4ccccc4n32)c1 (stereo unspecified) | 73.1 µM (inactive) | 51.4 µM (inactive) | 54.6 µM (inactive) | 57.9 µM (inactive) | 65.3 µM (inactive) | 46.3 µM (inactive) | 45.4 µM (inactive) | 45.5 µM (inactive) | 38 µM (inactive) | > 100 µM (inactive) | 21.3 µM (inactive) | 30.1 µM (inactive) | 35.2 µM (inactive) | 77.1 µM (inactive) | 34.8 µM (inactive) | 45.6 µM (inactive) | – | – | – | –
7 | COc1ccc(-c2onc(-c3c(C)cc(C)cc3C)c2C2=NCCN2)cc1 | 36.7 µM (inactive) | 17.8 µM (inactive) | 33.3 µM (inactive) | 34.8 µM (inactive) | 14.2 µM (inactive) | 70 µM (inactive) | 28.2 µM (inactive) | > 100 µM (inactive) | – | 33.9 µM (inactive) | – | 16.4 µM (inactive) | > 10 µM (inactive) | 19.5 µM (inactive) | 74.5 µM (inactive) | 44.1 µM (inactive) | 28.3 µM (inactive) | – | – | –
8 | Cc1ccc(C(=O)Nc2ncn(C3CC(O)C(CO)O3)c(=O)n2)cc1 (stereo unspecified) | > 100 µM (inactive) | > 100 µM (inactive) | > 100 µM (inactive) | > 100 µM (inactive) | > 100 µM (inactive) | > 100 µM (inactive) | > 100 µM (inactive) | > 100 µM (inactive) | > 100 µM (inactive) | 12.2 µM (inactive) | > 100 µM (inactive) | – | > 33.3 µM (inactive) | – | > 100 µM (inactive) | > 100 µM (inactive) | – | – | – | –
9 | COC(OC)c1cc2c(cc1C=O)OCO2 | > 100 µM (inactive) | > 100 µM (inactive) | 0.276 µM (active) | > 100 µM (inactive) | 43.8 µM (inactive) | > 100 µM (inactive) | 64.9 µM (inactive) | > 100 µM (inactive) | – | > 100 µM (inactive) | > 100 µM (inactive) | 47.2 µM (inactive) | 75.5 µM (inactive) | 48.9 µM (inactive) | > 100 µM (inactive) | > 100 µM (inactive) | > 100 µM (inactive) | – | – | –
10 | CN1CCCC2(CCCc3ccccc32)C1 (stereo unspecified) | > 100 µM (inactive) | > 100 µM (inactive) | > 100 µM (inactive) | > 100 µM (inactive) | > 100 µM (inactive) | > 100 µM (inactive) | > 100 µM (inactive) | > 100 µM (inactive) | > 100 µM (inactive) | – | > 100 µM (inactive) | > 100 µM (inactive) | > 100 µM (inactive) | > 100 µM (inactive) | > 100 µM (inactive) | > 100 µM (inactive) | > 100 µM (inactive) | – | – | –
11 | CC(=O)NNc1nc(C)c(C(=O)NNC(=O)C(=O)Nc2c(C)cccc2C(C)(C)C)s1 | > 100 µM (inactive) | > 100 µM (inactive) | – | > 100 µM (inactive) | > 100 µM (inactive) | > 100 µM (inactive) | 31.3 µM (inactive) | 93.3 µM (inactive) | > 100 µM (inactive) | > 100 µM (inactive) | – | 33.3 µM (inactive) | – | > 100 µM (inactive) | 46.9 µM (inactive) | 25.6 µM (inactive) | 83.4 µM (inactive) | – | – | –
12 | CCC(C)n1c(C)nc2c1C(=O)c1ccccc1C2=O (stereo unspecified) | 30.8 µM (inactive) | 61.9 µM (inactive) | 32.2 µM (inactive) | 47.1 µM (inactive) | > 100 µM (inactive) | 96.8 µM (inactive) | 34 µM (inactive) | 45.1 µM (inactive) | – | 96.6 µM (inactive) | – | 14.5 µM (inactive) | 32.5 µM (inactive) | > 100 µM (inactive) | 33.9 µM (inactive) | 60.8 µM (inactive) | 43.7 µM (inactive) | – | – | –
13 | O=c1c2cccnc2ncn1CCCN1CCCCC1 | > 100 µM (inactive) | > 100 µM (inactive) | > 100 µM (inactive) | > 100 µM (inactive) | > 100 µM (inactive) | > 100 µM (inactive) | > 100 µM (inactive) | > 100 µM (inactive) | – | > 100 µM (inactive) | > 100 µM (inactive) | – | > 100 µM (inactive) | > 100 µM (inactive) | > 100 µM (inactive) | – | – | – | – | –
14 | CC1=C(Cl)C=CP(=O)(OC(C)C)C1 (stereo unspecified) | > 100 µM (inactive) | – | > 100 µM (inactive) | 36.9 µM (inactive) | – | > 100 µM (inactive) | 47.4 µM (inactive) | > 100 µM (inactive) | > 100 µM (inactive) | – | > 100 µM (inactive) | 52 µM (inactive) | > 100 µM (inactive) | 61.7 µM (inactive) | > 100 µM (inactive) | > 100 µM (inactive) | > 100 µM (inactive) | – | – | –
15 | Cc1nnc(N)s/c1=N/O | > 100 µM (inactive) | > 100 µM (inactive) | > 100 µM (inactive) | > 100 µM (inactive) | > 100 µM (inactive) | > 100 µM (inactive) | > 100 µM (inactive) | > 100 µM (inactive) | > 100 µM (inactive) | > 100 µM (inactive) | – | > 100 µM (inactive) | > 100 µM (inactive) | > 100 µM (inactive) | > 100 µM (inactive) | > 100 µM (inactive) | – | > 100 µM (inactive) | > 100 µM (inactive) | > 100 µM (inactive)
16 | Cc1nc2c(=O)[nH]c(=O)n(C)c2[nH]c1=O.c1ccncc1 | > 100 µM (inactive) | > 100 µM (inactive) | > 100 µM (inactive) | > 100 µM (inactive) | > 100 µM (inactive) | > 100 µM (inactive) | > 100 µM (inactive) | > 100 µM (inactive) | > 100 µM (inactive) | > 100 µM (inactive) | – | > 100 µM (inactive) | > 100 µM (inactive) | > 100 µM (inactive) | > 100 µM (inactive) | > 100 µM (inactive) | > 100 µM (inactive) | – | – | –
17 | COc1ccc(NN=C2C(=O)CCC2=O)cc1 | > 100 µM (inactive) | > 100 µM (inactive) | > 100 µM (inactive) | > 100 µM (inactive) | > 100 µM (inactive) | > 100 µM (inactive) | > 100 µM (inactive) | > 100 µM (inactive) | 55 µM (inactive) | > 100 µM (inactive) | > 100 µM (inactive) | > 100 µM (inactive) | > 100 µM (inactive) | 57.3 µM (inactive) | 18.3 µM (inactive) | > 100 µM (inactive) | – | – | – | –
18 | CC(C(=O)OCc1ccccc1)N(Cc1ccccc1)Cc1ccccc1 (stereo unspecified) | > 100 µM (inactive) | – | 51.2 µM (inactive) | > 100 µM (inactive) | > 100 µM (inactive) | > 100 µM (inactive) | 77.8 µM (inactive) | > 100 µM (inactive) | > 100 µM (inactive) | > 100 µM (inactive) | 60.7 µM (inactive) | 21 µM (inactive) | > 100 µM (inactive) | > 100 µM (inactive) | > 100 µM (inactive) | > 100 µM (inactive) | > 100 µM (inactive) | – | – | –
19 | c1ccc(-c2ccnc3c2ccc2c(-c4ccccc4)ccnc23)cc1 | 3.12 µM (inactive) | 1.65 µM (inactive) | 4.06 µM (inactive) | 1.48 µM (inactive) | 2.65 µM (inactive) | 0.664 µM (active) | 0.621 µM (active) | 0.931 µM (active) | 2.53 µM (inactive) | 1.19 µM (inactive) | 0.382 µM (active) | 0.809 µM (active) | 2.47 µM (inactive) | 3.37 µM (inactive) | 0.875 µM (active) | – | 3.73 µM (inactive) | – | – | –
